Data taken from paper PMC10266040 (Proceedings of the National Academy of Sciences of the …, 2023).
Positions count from the first letter of the chain named.

Tests used:
ETR1 [1] = target: T1, ETR1 (Arabidopsis thaliana, UniProt P49333, K91M); experiment: saturable […]ethylene radioligand binding to yeast expressing the mutant
T1 sequence (P49333 1-738 K91M): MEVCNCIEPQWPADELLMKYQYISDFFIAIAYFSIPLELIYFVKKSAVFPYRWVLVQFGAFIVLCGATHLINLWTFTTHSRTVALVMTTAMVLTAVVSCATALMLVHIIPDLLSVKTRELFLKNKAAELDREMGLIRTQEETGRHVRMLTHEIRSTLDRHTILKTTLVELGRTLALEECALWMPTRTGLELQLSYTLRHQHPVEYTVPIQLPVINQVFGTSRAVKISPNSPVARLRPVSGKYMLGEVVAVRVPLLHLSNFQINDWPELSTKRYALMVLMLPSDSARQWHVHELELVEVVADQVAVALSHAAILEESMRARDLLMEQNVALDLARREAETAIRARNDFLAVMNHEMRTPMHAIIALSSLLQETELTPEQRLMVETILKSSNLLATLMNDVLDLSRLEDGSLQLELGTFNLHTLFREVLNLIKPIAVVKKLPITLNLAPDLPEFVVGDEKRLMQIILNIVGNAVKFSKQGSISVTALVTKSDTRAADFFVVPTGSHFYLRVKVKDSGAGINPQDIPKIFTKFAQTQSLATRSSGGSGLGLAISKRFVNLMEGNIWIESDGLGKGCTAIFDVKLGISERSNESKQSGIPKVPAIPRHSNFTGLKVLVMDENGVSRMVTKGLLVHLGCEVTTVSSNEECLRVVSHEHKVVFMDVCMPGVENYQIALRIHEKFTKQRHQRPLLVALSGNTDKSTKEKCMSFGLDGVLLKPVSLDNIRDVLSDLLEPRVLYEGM

ETR1 [2] = target: T2, ETR1 (Arabidopsis thaliana, UniProt P49333, K91R); experiment: as above
T2 sequence (P49333 1-738 K91R): T1 sequence (P49333 1-738 K91M) with M91R

Question: What does the source list for `C=C` [ethylene]?
Answer: % of wildtype binding (ETR1 [1]): ~ 6 % of wildtype binding; % of wildtype binding (ETR1 [2]): 63 % of wildtype binding
